From ChEMBL document CHEMBL2413039, “Novel N-hydroxyfurylacrylamide-based histone deacetylase (HDAC) inhibitors with branched CAP group (Part 2)” (Bioorg Med Chem, 2013) come the findings set out here.

One series has as its target Histone deacetylase 4 (Homo sapiens, UniProt P56524). Kind of series: Inhibition of human recombinant HDAC4 using p53 residues 379-382 (RHKKAc) as substrate.
The nature of series [1]: Partition coefficient, log D of the compound at pH 7.4 by Avdeef-Tsinman potentiometric titration method. The series is classed as physicochemical. The following applies: octanol/water.
For another series, the system named is HCT-116. Kind of series: cells. The series is classed as functional, cell-based. Particulars: Homo sapiens, HCT-116, 48 h.
Series [2] is filed under the species Homo sapiens. Kind of series: Selectivity ratio of IC50 for human recombinant HDAC1 to human recombinant HDAC6.
In a further series the test system is A549. Kind of series: cells. It is filed as functional, cell-based. Particulars: Homo sapiens, A549, 48 h.
The test system of a further series is HepG2. Kind of series: cells. The series is classed as functional, cell-based. Particulars: Homo sapiens, HepG2, 48 h.
Series [3] is filed under the species Homo sapiens. Kind of series: Selectivity ratio of IC50 for human recombinant HDAC4 to human recombinant HDAC6.
Series [4] deals with T1, Protein deacetylase HDAC6 (Homo sapiens, UniProt Q9UBN7).
T1 sequence (Q9UBN7 whole entry): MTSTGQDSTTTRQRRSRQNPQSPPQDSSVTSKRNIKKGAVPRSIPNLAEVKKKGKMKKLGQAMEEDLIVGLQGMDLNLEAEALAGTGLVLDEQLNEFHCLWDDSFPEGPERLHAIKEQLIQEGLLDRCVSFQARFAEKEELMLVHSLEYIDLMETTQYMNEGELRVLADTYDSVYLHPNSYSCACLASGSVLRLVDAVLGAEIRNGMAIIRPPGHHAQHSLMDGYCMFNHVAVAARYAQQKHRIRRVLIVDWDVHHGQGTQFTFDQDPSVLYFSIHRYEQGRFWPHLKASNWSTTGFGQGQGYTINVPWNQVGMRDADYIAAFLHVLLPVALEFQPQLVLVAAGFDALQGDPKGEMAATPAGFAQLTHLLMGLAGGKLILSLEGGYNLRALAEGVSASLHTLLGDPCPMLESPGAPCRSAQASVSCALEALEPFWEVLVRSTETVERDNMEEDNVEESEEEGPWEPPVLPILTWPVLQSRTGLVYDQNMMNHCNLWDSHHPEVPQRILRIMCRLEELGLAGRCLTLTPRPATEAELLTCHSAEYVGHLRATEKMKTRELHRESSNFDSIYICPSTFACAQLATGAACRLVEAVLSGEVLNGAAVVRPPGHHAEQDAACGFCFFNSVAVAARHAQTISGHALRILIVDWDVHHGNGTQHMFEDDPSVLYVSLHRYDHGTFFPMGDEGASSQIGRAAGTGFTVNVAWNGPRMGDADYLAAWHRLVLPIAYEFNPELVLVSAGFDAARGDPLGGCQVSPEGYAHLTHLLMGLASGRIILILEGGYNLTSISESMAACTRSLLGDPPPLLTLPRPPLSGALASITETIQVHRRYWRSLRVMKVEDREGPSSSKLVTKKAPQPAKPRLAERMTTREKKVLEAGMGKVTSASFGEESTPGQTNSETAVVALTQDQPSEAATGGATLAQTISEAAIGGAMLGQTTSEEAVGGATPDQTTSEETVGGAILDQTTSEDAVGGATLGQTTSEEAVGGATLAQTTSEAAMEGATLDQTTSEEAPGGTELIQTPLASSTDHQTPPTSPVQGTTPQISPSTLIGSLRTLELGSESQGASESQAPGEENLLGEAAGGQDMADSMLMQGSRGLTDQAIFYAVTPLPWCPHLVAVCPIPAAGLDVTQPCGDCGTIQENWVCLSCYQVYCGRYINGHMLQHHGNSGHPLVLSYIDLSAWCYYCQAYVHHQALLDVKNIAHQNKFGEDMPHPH

Another series has as its system PC-3. Kind of series: cells. It is filed as functional, cell-based. Particulars: Homo sapiens, PC-3, 48 h.
The next series concerns the target Histone deacetylase. It is filed as protein assay, Homo sapiens. Particulars: hela.
The nature of series [5]: Intrinsic aqueous solubility of the compound at pH 7.4 by Avdeef-Tsinman potentiometric titration method. The series is classed as physicochemical. Particulars: read-out: Intrinsic_solubility.
Another series addresses Histone deacetylase 1 (Homo sapiens, UniProt Q13547). Put plainly: Inhibition of human recombinant HDAC1 using p53 residues 379-382 (RHKKAc) as substrate.

Values after ≈ are worked out from the molar mass of the structure shown.

Sequence of Histone deacetylase 4 (P56524 whole entry, the tested form may be a part): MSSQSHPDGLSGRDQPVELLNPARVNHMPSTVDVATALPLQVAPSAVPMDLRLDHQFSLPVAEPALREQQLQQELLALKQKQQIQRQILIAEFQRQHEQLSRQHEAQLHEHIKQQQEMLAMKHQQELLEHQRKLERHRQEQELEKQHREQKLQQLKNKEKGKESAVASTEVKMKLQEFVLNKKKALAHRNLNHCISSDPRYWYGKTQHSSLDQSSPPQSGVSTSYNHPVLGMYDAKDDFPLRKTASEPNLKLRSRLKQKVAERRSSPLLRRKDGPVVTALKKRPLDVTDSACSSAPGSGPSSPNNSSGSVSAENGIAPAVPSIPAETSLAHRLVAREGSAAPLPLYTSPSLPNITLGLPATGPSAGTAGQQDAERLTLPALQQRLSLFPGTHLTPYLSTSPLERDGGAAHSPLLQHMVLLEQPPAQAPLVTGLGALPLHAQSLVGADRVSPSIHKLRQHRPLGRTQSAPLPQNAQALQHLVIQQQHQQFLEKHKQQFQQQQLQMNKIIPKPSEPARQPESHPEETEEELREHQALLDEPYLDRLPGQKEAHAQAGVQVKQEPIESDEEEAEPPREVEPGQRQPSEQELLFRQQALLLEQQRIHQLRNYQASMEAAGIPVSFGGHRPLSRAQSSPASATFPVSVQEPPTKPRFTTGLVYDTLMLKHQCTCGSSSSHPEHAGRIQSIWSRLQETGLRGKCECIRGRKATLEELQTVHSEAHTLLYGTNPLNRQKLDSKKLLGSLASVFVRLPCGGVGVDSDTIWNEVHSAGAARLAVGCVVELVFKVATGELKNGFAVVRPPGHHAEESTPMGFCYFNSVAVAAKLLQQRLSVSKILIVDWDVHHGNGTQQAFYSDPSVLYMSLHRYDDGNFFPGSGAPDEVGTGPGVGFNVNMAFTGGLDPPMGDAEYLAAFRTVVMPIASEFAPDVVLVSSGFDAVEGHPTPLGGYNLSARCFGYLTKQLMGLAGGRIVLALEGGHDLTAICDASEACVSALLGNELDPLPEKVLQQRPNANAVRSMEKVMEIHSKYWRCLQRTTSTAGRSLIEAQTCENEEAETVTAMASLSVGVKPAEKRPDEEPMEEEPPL
Sequence of Histone deacetylase 1 (Q13547 whole entry, the tested form may be a part): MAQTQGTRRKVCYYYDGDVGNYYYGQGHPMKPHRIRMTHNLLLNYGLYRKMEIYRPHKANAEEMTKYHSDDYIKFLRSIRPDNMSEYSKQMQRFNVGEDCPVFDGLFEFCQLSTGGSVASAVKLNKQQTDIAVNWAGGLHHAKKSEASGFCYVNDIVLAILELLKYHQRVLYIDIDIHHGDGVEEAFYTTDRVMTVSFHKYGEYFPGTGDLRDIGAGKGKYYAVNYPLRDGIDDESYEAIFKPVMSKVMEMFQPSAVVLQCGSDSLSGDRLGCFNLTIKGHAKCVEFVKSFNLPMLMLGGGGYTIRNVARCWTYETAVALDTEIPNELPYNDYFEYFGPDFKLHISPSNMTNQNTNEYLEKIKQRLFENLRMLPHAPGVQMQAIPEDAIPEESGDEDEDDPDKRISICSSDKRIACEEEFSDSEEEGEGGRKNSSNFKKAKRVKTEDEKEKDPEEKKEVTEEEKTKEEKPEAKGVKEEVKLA

As to `CCCN(Cc1ccccc1)Cc1ccc(/C=C/C(=O)NO)o1`, the IC50 at Histone deacetylase 4 is 10.6 µM; in series [4] it was 0.18 µM; at Histone deacetylase, 0.17 µM; on Histone deacetylase 1 it was 4.95 µM. In series [1], this compound displayed a logD of 2.54. Besides, the EC50 in the series on HCT-116 worked out at 24.9 µM; with A549 it was 23.2 µM; with HepG2, 16.7 µM; in the series on PC-3 it was 25 µM. Besides, the Ratio IC50 amounted to 28.1 in the series filed under Homo sapiens [2] and 60 in the series filed under Homo sapiens [3]. In [5], the solubility stood at 2800 µM (≈ 880 µg/mL).

With `CCCCN(Cc1ccccc1)Cc1ccc(/C=C/C(=O)NO)o1`, the IC50 stood at 7.26 µM at Histone deacetylase 4, 0.23 µM in series [4], 0.54 µM on Histone deacetylase and 4.69 µM at Histone deacetylase 1. The compound also gave a logD in series [1] of 2.97. Moreover, the EC50 was 18.3 µM in the series with HCT-116, 14.5 µM in the series with A549, 24.3 µM in the series on HepG2 and 20.7 µM in the series on PC-3. For the same compound, the Ratio IC50 was 20 in the series listed under Homo sapiens [2] and 30.9 in the series filed under Homo sapiens [3]. Moreover, in series [5], the solubility worked out at 2300 µM (≈ 755 µg/mL).

In turn, `CCCCCCCCN(Cc1ccccc1)Cc1ccc(/C=C/C(=O)NO)o1` displayed a pH-dependent lipophilicity (logD) in series [1] of 5.28. In addition, the EC50 with HCT-116 came out at 0.47 µM; with A549 it was 6.59 µM; in the series with HepG2, 3.96 µM; in the series with PC-3, 42.3 µM. Also, the IC50 on Histone deacetylase worked out at 2.55 µM. The solubility in series [5] stood at 1900 µM (≈ 731 µg/mL).

`Cc1ccc(OCCCN(Cc2ccccc2)Cc2ccc(/C=C/C(=O)NO)o2)cc1`: the half-maximal inhibitory concentration (IC50) stood at 13.2 µM at Histone deacetylase 4, 0.93 µM in series [4], 2.54 µM at Histone deacetylase and 9.66 µM at Histone deacetylase 1. In addition, the EC50 in the series on HCT-116 was 6.02 µM; in the series on A549 it was 7.95 µM; with HepG2, 5.95 µM; with PC-3 it was 42.2 µM. Moreover, the figures for the Ratio IC50 in the series filed under Homo sapiens [2] and in the series filed under Homo sapiens [3] were 10.4 and 14.2, respectively.

For the compound `O=C(/C=C/c1ccc(CN(CCOc2ccccc2)Cc2ccccc2)o1)NO`, the IC50 at Histone deacetylase 4 is 50.6 µM; in [4], 1.93 µM; against Histone deacetylase it was > 2.55 µM; on Histone deacetylase 1 it was 20.2 µM. Besides, the EC50 was 20.1 µM in the series on HCT-116, 52.3 µM in the series with A549, 44.7 µM in the series with HepG2 and > 128 µM in the series on PC-3. For the same compound, the Ratio IC50 was 10.5 in the series filed under Homo sapiens [2] and 26.2 in the series listed under Homo sapiens [3].

As for `O=C(/C=C/c1ccc(CN(CCCOc2ccccc2)Cc2ccccc2)o1)NO`, the half-maximal inhibitory concentration (IC50) was determined as 12.3 µM on Histone deacetylase 4, 0.79 µM in series [4], 1.48 µM against Histone deacetylase and 6.48 µM at Histone deacetylase 1. For the same compound, the EC50 with HCT-116 is 7.24 µM; with A549 it was 25.8 µM; in the series with HepG2, 15 µM; with PC-3, 44.9 µM. The values for the Ratio IC50 in the series filed under Homo sapiens [2] and in the series filed under Homo sapiens [3] were 8.21 and 15.6, respectively.

As to `CCN(Cc1ccccc1)Cc1ccc(/C=C/C(=O)NO)o1`, the half-maximal inhibitory concentration (IC50) at Histone deacetylase 4 stood at 10.7 µM; in [4] it was 0.25 µM; at Histone deacetylase it was 0.13 µM; on Histone deacetylase 1 it was 5.44 µM. In addition, the logD in [1] was 1.95. For the same compound, the EC50 in the series on HCT-116 was 6.37 µM; with A549 it was 38.4 µM; in the series on HepG2, > 167 µM; in the series on PC-3, 104 µM. Further, the Ratio IC50 came to 21.4 in the series filed under Homo sapiens [2] and 42.3 in the series listed under Homo sapiens [3]. In addition, the solubility in [5] was found to be 3000 µM (≈ 901 µg/mL).

As for `CCN(Cc1ccc(-c2ccccc2)cc1)Cc1ccc(/C=C/C(=O)NO)o1`, the IC50 at Histone deacetylase 4 was 5.72 µM; in series [4], 0.83 µM; against Histone deacetylase it was 1.25 µM; at Histone deacetylase 1 it was 3.42 µM. Also, the concentration for a half-maximal effect (EC50) with HCT-116 was found to be 1.84 µM; in the series with A549 it was 8.4 µM; with HepG2, 12.8 µM; in the series on PC-3, 67.9 µM. The Ratio IC50 worked out at 4.11 in the series filed under Homo sapiens [2] and 6.87 in the series filed under Homo sapiens [3].

With `CC(C)CN(Cc1ccccc1)Cc1ccc(/C=C/C(=O)NO)o1`, the IC50 on Histone deacetylase 4 is 12.3 µM; in [4], 1.1 µM; against Histone deacetylase, 3.17 µM; at Histone deacetylase 1, 20.6 µM. For the same compound, the EC50 is 26.3 µM in the series on HCT-116, 20.5 µM with A549, 27.7 µM with HepG2 and 18.8 µM with PC-3. Besides, the Ratio IC50 came out at 18.7 in the series listed under Homo sapiens [2] and 11.2 in the series filed under Homo sapiens [3].

As for `O=C(/C=C/c1ccc(CN(CCO)Cc2ccc(-c3ccccc3)cc2)o1)NO`, the logD in [1] came out at 1.8. The half-maximal effective concentration (EC50) was found to be 4.02 µM with HCT-116, 8.36 µM in the series with A549, 22.6 µM in the series on HepG2 and 15.9 µM in the series on PC-3. On Histone deacetylase, this compound returned an IC50 of 0.089 µM. Besides, the solubility in series [5] stood at 3110 µM (≈ 1220 µg/mL).

As for `Cc1ccc(OCCCCN(Cc2ccccc2)Cc2ccc(/C=C/C(=O)NO)o2)cc1`, the IC50 was determined as 12.6 µM on Histone deacetylase 4, 0.55 µM in [4], 1.31 µM against Histone deacetylase and 4.73 µM at Histone deacetylase 1. Moreover, the concentration for a half-maximal effect (EC50) in the series with HCT-116 was determined as 5.62 µM; in the series on A549, 9.82 µM; in the series on HepG2, 16.3 µM; with PC-3 it was 15.7 µM. The values for the Ratio IC50 in the series listed under Homo sapiens [2] and in the series listed under Homo sapiens [3] were 8.63 and 23.1, respectively.

With `CC(C)N(Cc1ccccc1)Cc1ccc(/C=C/C(=O)NO)o1`, the IC50 at Histone deacetylase 4 stood at 3.96 µM; in series [4], 0.34 µM; against Histone deacetylase, 0.18 µM; on Histone deacetylase 1 it was 2.37 µM. Moreover, the EC50 stood at 22.7 µM in the series on HCT-116, 34.5 µM with A549, 67.5 µM in the series on HepG2 and 26.9 µM in the series on PC-3. Moreover, the Ratio IC50 is 6.94 in the series filed under Homo sapiens [2] and 11.6 in the series listed under Homo sapiens [3].

Turning to `O=C(/C=C/c1ccc(CN(CCO)Cc2ccccc2)o1)NO`, the IC50 worked out at 11.3 µM on Histone deacetylase 4, 0.43 µM in series [4], 0.17 µM against Histone deacetylase and 12.7 µM at Histone deacetylase 1. The compound also registered a logD in [1] of 1.62. Also, the EC50 in the series on HCT-116 was 12.1 µM; with A549, 97.2 µM; in the series on HepG2, 128 µM; with PC-3, > 138 µM. The Ratio IC50 in the series listed under Homo sapiens [2] stood at 29.7; in the series filed under Homo sapiens [3], 26.3. Besides, the solubility in series [5] is 4000 µM (≈ 1270 µg/mL).
